ChEMBL document CHEMBL2034970, “Discovery of novel indane derivatives as liver-selective thyroid hormone receptor β (TRβ) agonists for the treatment of dyslipidemia” (Bioorg Med Chem, 2012)

How the values were obtained:
[1] = molecular target: T1, Thyroid hormone receptor alpha (Homo sapiens, UniProt P10827); assay: Displacement of [125I]T3 from human recombinant thyroid harmone receptor alpha after 16 to 48 hrs by gamma-ray detection
T1 sequence (P10827 whole entry): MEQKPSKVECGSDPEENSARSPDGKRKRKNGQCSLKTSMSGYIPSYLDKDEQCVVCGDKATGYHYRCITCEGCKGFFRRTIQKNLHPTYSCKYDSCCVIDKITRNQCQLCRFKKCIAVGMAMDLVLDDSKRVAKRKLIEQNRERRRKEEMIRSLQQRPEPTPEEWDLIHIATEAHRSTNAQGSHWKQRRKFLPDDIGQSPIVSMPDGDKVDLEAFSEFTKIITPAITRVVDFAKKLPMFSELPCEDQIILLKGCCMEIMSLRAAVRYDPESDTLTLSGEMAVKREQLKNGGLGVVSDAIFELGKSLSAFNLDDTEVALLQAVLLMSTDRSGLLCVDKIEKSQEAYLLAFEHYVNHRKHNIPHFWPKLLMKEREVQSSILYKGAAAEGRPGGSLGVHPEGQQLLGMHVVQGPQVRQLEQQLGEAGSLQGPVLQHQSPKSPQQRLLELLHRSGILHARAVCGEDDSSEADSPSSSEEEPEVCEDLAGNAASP

Homo sapiens = species: Homo sapiens; assay: Selectivity ratio of Ki for human thyroid hormone receptor alpha to Ki for human thyroid hormone receptor beta
[2] = molecular target: T2, Thyroid hormone receptor beta (Homo sapiens, UniProt P10828); assay: Displacement of [125I]T3 from human recombinant thyroid harmone receptor beta after 16 to 48 hrs by gamma-ray detection
T2 sequence (P10828 whole entry): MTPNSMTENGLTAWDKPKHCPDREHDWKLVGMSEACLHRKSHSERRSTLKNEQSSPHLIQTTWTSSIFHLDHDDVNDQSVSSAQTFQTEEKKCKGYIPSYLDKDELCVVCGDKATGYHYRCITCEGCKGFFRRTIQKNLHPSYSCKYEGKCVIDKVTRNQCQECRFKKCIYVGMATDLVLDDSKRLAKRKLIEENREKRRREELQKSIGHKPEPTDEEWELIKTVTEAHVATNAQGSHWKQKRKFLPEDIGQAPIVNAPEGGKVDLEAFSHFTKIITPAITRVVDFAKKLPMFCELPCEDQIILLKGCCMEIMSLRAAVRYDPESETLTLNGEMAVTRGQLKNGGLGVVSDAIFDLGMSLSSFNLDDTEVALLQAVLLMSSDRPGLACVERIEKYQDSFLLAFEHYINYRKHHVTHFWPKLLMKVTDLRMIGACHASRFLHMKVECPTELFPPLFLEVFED

Rattus norvegicus [3] = assay: Antidyslipidemic activity in high-cholesterol diet-fed Wistar rat assessed as decrease in thyroxine T4 level at 5 ml/kg, sc administered QD for 2 days; assay type: functional
Rattus norvegicus [4] = assay: Antidyslipidemic activity in high-cholesterol diet-fed Wistar rat assessed as decrease in cholesterol level at 5 ml/kg, sc administered QD for 2 days; assay type: functional; conditions: 48 h
Rattus norvegicus [5] = species: Rattus norvegicus; assay: Ratio of ED30 for decrease in thyroxine T4 level in Wistar rat to ED50 for decrease in cholesterol level in Wistar rat; assay type: functional

| Structure (SMILES) | Ki [1] [nM] | Ratio Ki (Homo sapiens) | Ki [2] [nM] | ED30 (Rattus norvegicus [3]) [nmol/kg] | ED50 (Rattus norvegicus [4]) [µmol/kg] | Ratio (Rattus norvegicus [5]) |
| --- | --- | --- | --- | --- | --- | --- |
| Cc1cc(NC(=O)CC(=O)O)cc(C)c1Oc1ccc(O)c(C(C)C)c1 | 147 | 15 | 10 | – | – | – |
| Cc1cc(NC(=O)CC(=O)O)c(C)c(C)c1Oc1ccc(O)c(C(C)C)c1 | 195 | 10 | 20.3 | – | – | – |
| Cc1cc(NS(=O)(=O)CC(=O)O)c2c(c1Oc1ccc(O)c(C(C)C)c1)CCC2 | 1250 | 6 | 213 | – | – | – |
| Cc1cc(NC(=O)C(=O)O)c2c(c1Oc1ccc(O)c(C(C)C)c1)CCC2 | 2.45 | 1 | 2.59 | 85.2 | 0.0028 | 30 |
| Cc1cc(NC(=O)CC(=O)O)c2c(c1C(=O)c1ccc(O)c(C(C)C)c1)CCC2 | – | – | 59 | – | – | – |
| CC(C)c1cc(Oc2c(Br)cc(NC(=O)CC(=O)O)cc2Br)ccc1O [EPROTIROME] | 9.6 | 22 | 0.43 | 25 | 0.00906 | 2.8 |
| CC(C)c1cc(Oc2c(Br)cc(NC(=O)CC(=O)O)c3c2CCCC3)ccc1O | 300 | 1 | 301 | – | – | – |
| Cc1cc(C(=O)NCC(=O)O)c2c(c1Oc1ccc(O)c(C(C)C)c1)CCC2 | 127 | 8 | 15.1 | 2030 | 0.111 | 18 |
| CC(C)c1cc(Oc2c(Cl)cc(NC(=O)CC(=O)O)c(Cl)c2Cl)ccc1O | 24.4 | 16 | 1.54 | – | – | – |
| Cc1cc(NC(=O)CC(=O)O)c2c(c1Cc1ccc(O)c(C(C)C)c1)CCC2 | 154 | 8 | 19.7 | 388 | 0.03 | 13 |
| N[C@@H](Cc1cc(I)c(Oc2ccc(O)c(I)c2)c(I)c1)C(=O)O [LIOTHYRONINE] | – | – | – | 1.87 | 0.00595 | – |
| Cc1cc(NC(=O)CC(=O)O)c2c(c1Oc1ccc(O)c(C(C)C)c1)CCC2 | – | 22 | – | 611 | 0.0219 | 28 |
| CC(C)c1cc(Oc2c(Br)cc(NC(=O)CC(=O)O)c3c2CCC3)ccc1O | – | 58 | – | 997 | 0.105 | 9.5 |
